Patent US20050020553A1, “Prevention of miscarriage with immunomodulating non-endogenous gestagen compounds” (Solvay Pharmaceuticals GmbH, priority 2001, published 2005)

What was measured:
[1] = in vivo; cited from earlier work
pregnant mice = test: Murine stress-induced (ultrasound) abortion model; assay type: in vivo
From the text: The results of the pharmacological test method given above can also be confirmed in an in vivo test model involving pregnant mice. […] Pregnant mice were exposed to ultrasound on day 5 of gestation. This stress increased the abortion rate of these mice from around 12% to 44%. Treatment with dydrogesterone reduced the abortion in a dose-related manner to as low as 5%.

[2] = molecular target: T1, human progesterone receptor (Homo sapiens, UniProt P06401); conditions: cited from earlier work
T1 sequence (P06401 1-933): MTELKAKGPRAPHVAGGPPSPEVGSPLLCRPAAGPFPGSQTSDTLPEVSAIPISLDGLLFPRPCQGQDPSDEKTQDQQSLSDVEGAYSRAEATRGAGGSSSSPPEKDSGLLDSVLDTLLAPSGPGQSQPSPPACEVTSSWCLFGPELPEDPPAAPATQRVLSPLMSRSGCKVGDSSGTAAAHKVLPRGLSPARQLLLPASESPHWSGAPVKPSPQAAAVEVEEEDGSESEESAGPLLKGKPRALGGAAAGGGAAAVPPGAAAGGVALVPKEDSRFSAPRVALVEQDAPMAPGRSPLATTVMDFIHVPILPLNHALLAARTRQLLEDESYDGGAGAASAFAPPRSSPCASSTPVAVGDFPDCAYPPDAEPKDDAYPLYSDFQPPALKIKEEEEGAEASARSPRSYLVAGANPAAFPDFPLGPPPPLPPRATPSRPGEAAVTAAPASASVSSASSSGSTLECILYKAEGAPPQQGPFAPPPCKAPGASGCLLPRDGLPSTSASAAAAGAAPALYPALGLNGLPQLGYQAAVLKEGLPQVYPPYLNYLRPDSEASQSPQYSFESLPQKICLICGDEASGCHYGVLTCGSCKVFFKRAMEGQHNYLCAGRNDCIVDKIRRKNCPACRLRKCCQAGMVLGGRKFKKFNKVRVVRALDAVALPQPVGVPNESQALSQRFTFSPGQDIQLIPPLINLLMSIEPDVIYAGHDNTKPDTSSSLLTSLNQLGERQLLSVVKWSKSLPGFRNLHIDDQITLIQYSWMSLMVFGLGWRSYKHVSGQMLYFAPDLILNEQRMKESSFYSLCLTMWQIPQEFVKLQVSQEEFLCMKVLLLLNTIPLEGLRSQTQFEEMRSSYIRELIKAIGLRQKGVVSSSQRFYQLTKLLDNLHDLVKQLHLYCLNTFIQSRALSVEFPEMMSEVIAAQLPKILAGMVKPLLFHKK

[3] = tested on: peripheral blood mononuclear cells (=PBMC); test: Mitogen-induced stimulation of PBMC from women with unexplained habitual abortion, cytokine levels by ELISA; assay type: cell-based, human (women); conditions: for levels of IL-4 / levels of IL-6 / production of the Th1 cytokine IFN-gamma: PHA-stimulated PBMC from women with unexplained habitual abortion, 96 hours in culture, ELISA
From the text: The effects of dydrogesterone on Th1 and Th2 cytokine profiles produced by mitogen-stimulated peripheral blood mononuclear cells (=PBMC) were established. The effects of dydrogesterone on Th1 and Th2 cytokine production were investigated in peripheral blood lymphocytes from women with unexplained habitual abortion. The peripheral mononuclear cells were stimulated with mitogen (phytohaemagglutinin) in vitro, in the presence and absence of dydrogesterone. The levels of cytokines secreted were measured after 96 hours in culture. […] Several studies have pointed to a deviation of cytokine profiles in women when during pregnancy. Pregnancy is associated with a shift towards Th2 bias, evinced by changes in peripheral T cells, by cytokine production by peripheral lymphocytes and by cytokine changes at the maternal-fetal interface. Unexplained recurrent spontaneous abortion (URSA) seems to be associated with a stronger bias towards Th1 cytokines. Women who have earlier been gone through URSA may therefore be regarded as a pre-selected group of patients that will typically respond to an immunological stimulation by showing a Th1 dominated pattern of immune response. The pharmacological test was therefore performed with a suitable URSA group which comprised of women admitted with spontaneous abortion for evacuation, (i) who have had at least two previous unexplained miscarriages, (ii) who were currently undergoing at least a 3rd abortion and (iii) who had been fully investigated. The relationship between habitual abortion and cytokine production response in 54 women with normal pregnancy (and at least 3 previous normal pregnancies) and 23 women with a history of habitual abortion of unexplained aetiology (URSA group) has been investigated. Peripheral blood was obtained by venipuncture from the abortion group on the day of abortion. PBMC is separated by Ficoll-paque (Pharmacia Biotech, Sweden) density gradient centrifugation, suspended in RPMI medium (=“Roswell Park Memorial Institute”-medium; obtained from GIBCO/BRL, USA) containing 10% fetal calf serum, aliquoted into 96 well tissue culture plates at a density of 100.000 cells per well and then stimulated with the mitogen phytohemagglutinin (=PHA, Sigma Chemicals, USA) at a concentration of […] for a period of 96 hours, with autologous placental antigens or with trophoblast antigens. Progesterone, dydrogesterone (Duphaston®) and RU486 (=mifepristone) was added in different combinations as described below. Progesterone was tested at concentrations of […]. RU486 was tested at equivalent concentrations. Culture supernatants were harvested at 96 hours for determination of the levels of cytokines secreted by the PBMC into the supernatants. Cytokine levels were determined in the supernatants by enzyme-linked immunosorbent assay (=ELISA). Each sample was tested in the following manner: • PBMC+mitogen • PBMC+mitogen+progesterone • PBMC+mitogen+progesterone+RU486 • PBMC+mitogen+dydrogesterone • PBMC+mitogen+dydrogesterone+RU486 • PBMC+mitogen+Carrier • PBMC+mitogen+Carrier+RU486 Determination of cytokine levels by ELISA: Th1 cytokines TNF-α and IFN-γ, and Th2 cytokines IL-4, IL-6 and IL-10 were evaluated in these samples by ELISA using kits that were obtained from Immunotech SA, France. These consisted of “sandwich ELISA”. Briefly, the first step leads to the capture of the relevant cytokine by monoclonal anti-cytokine antibodies bound to the wells of microtiter plates. In the second step, a second biotinylated monoclonal is added together with streptavidin-enzyme (peroxidase or alkaline phosphatase) conjugate. The biotinylated antibody binds to the solid phase antibody-antigen complex, and in turn, binds the conjugate. After incubation the wells are washed and the binding of the streptavidin-enzyme via biotin is followed by the addition of a chromogenic substrate. The intensity of the coloration produced is proportional to the concentration of the cytokine in the sample. […]

[4] = tested on: Th1 cytokine production to trophoblast; conditions: women with recurrent pregnancy loss; Choi et al., Human Reproduction 15/1 (2000); cited from earlier work
[5] = ex-vivo, women with spontaneous abortion and habitual abortion

SMILES	androgenic effects in the mother (hirsutism, voice changes, acne) [1]	masculinizing effect on the female fetus [1]	Th1/Th2 cytokine production (pregnant mice; murine stress-induced abortion model)	level of IL-4 (pregnant mice; pregnant mice exposed to ultrasound on day 5 of gestation)	abortion rate (pregnant mice; pregnant mice exposed to ultrasound on day 5 of gestation, stress raised rate from around 12% to 44%, dose-related) [%]	selectivity as progesterone receptor agonist [2]	levels of IL-4 [3]	levels of IL-6 [3]	production of the Th1 cytokine IFN-gamma [3]	levels of IL-4 ([3]; listed as Dydrogesterone)	levels of IL-6 ([3]; listed as Dydrogesterone)	production of the Th1 cytokine IFN-gamma ([3]; listed as Dydrogesterone)	Th1/Th2 bias [3, 5]	activity of lymphocytes [3, 5]	release of progesterone induced blocking factor (PIBF) [3, 5]	in-vitro embryotoxic Th1 cytokine production to trophoblast [4]
CC(=O)[C@H]1CC[C@H]2[C@@H]3C=CC4=CC(=O)CC[C@@]4(C)[C@@H]3CC[C@]12C [dydrogesterone]	no androgenic effects	no masculinizing effect	shift from Th1 to Th2-cytokine production	increased level	≥ 5	highly selective progesterone receptor agonist	marked increase	marked increase	reduction	increased	increased	strongly suppressed	shift from a Th1 towards a Th2 bias	reduced the activity of lymphocytes	increased release	–
CC(=O)[C@H]1CC[C@H]2[C@@H]3CCC4=CC(=O)CC[C@]4(C)[C@H]3CC[C@]12C [progesterone]	–	–	–	–	–	–	–	–	–	–	–	–	–	–	–	inhibits
